biological target: human TrkA (Homo sapiens (Human), UniProt P04629); test: Human TrkA inhibition assay (Test Example 2); format: biochemical; details: Table 155, human TrkA inhibition; read-out: IC50
In short: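 Mobility-shift readout of phosphorylated versus unphosphorylated fluorescent peptide gave conversion ratio, normalized to DMSO and no-enzyme wells; IC50 by logistic fit of 10- or 15-point 3-fold dilutions. Conditions: 1 nmol/L enzyme, 15 min compound preincubation, then 500 μmol/L ATP plus 1.5 μmol/L peptide, 120 min, 37 °C.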

human TrkA, sequence (P04629 440-796): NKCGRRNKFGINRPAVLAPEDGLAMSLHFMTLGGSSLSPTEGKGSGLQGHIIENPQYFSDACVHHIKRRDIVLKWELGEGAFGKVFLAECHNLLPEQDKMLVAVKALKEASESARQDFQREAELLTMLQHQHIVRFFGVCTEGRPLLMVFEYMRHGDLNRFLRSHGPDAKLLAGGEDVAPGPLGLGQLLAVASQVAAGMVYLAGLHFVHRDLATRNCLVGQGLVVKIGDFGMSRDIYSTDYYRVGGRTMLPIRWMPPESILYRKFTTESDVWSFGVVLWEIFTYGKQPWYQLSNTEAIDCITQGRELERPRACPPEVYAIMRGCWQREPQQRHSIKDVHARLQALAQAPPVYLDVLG

IC50 | Compound
< 100 nM | COCCN1C[C@@H](NC(=O)Nc2c(C)c(OCc3ccncc3)nn2-c2ccccc2)[C@H](c2ccnc(F)c2)O1 (racemic) [Compound I-456]
< 100 nM | COCCN1C[C@@H](NC(=O)Nc2c(C)c(OCc3ccon3)nn2-c2ccccc2)[C@H](c2ccnc(F)c2)O1 (racemic) [Compound I-457]
< 100 nM | COCCN1C[C@@H](NC(=O)Nc2c(C)c(-c3cnc(C(C)(C)O)c(F)c3)nn2-c2ccccc2)[C@H](c2ccnc(F)c2)O1 (racemic) [Compound I-459]
< 100 nM | COCCN1C[C@@H](NC(=O)Nc2c(C)c(-c3cnc4c(c3)OCCO4)nn2-c2ccccc2)[C@H](c2cnc(F)c(F)c2)O1 (racemic) [Compound I-462]
< 100 nM | COCCN1C[C@@H](NC(=O)Nc2c(C)c(-c3cnc(OC4COC4)nc3)nn2-c2ccccc2)[C@H](c2ccnc(F)c2)O1 (racemic) [Compound I-465]
< 100 nM | COCCN1C[C@@H](NC(=O)Nc2c(C)c(-c3cnc4c(cnn4CC(=O)N4CCN(C)CC4)c3)nn2-c2ccccc2)[C@H](c2ccnc(F)c2)O1 (racemic) [Compound I-467]
< 100 nM | COc1ncc(-c2nn(-c3ccccc3)c(NC(=O)N[C@@H]3CN(C)O[C@H]3c3ccc(F)c(F)c3)c2C)cn1 (racemic) [Compound I-468]
< 100 nM | CNC(=O)c1cc(-c2nn(-c3ccccc3)c(NC(=O)N[C@@H]3CN(C)O[C@H]3c3ccc(F)c(F)c3)c2C)cnc1OC (racemic) [Compound I-469]
< 100 nM | COCCN1C[C@@H](NC(=O)Nc2c(C)c(-c3ccc4nccn4c3)nn2-c2ccccc2)[C@H](c2ccnc(F)c2)O1 (racemic) [Compound I-470]
< 100 nM | COCCN1C[C@@H](NC(=O)Nc2c(C)c(-c3ccn4ccnc4c3)nn2-c2ccccc2)[C@H](c2ccnc(F)c2)O1 (racemic) [Compound I-471]
< 100 nM | COCCN1C[C@@H](NC(=O)Nc2c(C)c(OCc3cnn(C)c3)nn2-c2ccccc2)[C@H](c2ccnc(F)c2)O1 (racemic) [Compound I-472]
100 to 1000 nM | CNC(=O)c1cc(-c2nn(-c3ccccc3)c(NC(=O)N[C@@H]3CNO[C@H]3c3ccc(F)c(F)c3)c2C)cnc1OC (racemic) [Compound I-474]
< 100 nM | COCCN1C[C@@H](NC(=O)Nc2c(C)c(-c3cnc(-c4cnoc4)nc3)nn2-c2ccccc2)[C@H](c2ccnc(F)c2)O1 (racemic) [Compound I-476]
< 100 nM | COCCN1C[C@@H](NC(=O)Nc2c(C)c(-c3cnc(OC(C)C)nc3)nn2-c2ccccc2)[C@H](c2ccnc(F)c2)O1 (racemic) [Compound I-477]
< 100 nM | COCCN1C[C@@H](NC(=O)Nc2c(C)c(-c3cnc(OC(CF)CF)nc3)nn2-c2ccccc2)[C@H](c2ccnc(F)c2)O1 (racemic) [Compound I-478]
< 100 nM | COCCN1C[C@@H](NC(=O)Nc2c(C)c(-c3cnc(N4CC(C)(O)C4)nc3)nn2-c2ccccc2)[C@H](c2ccnc(F)c2)O1 (racemic) [Compound I-479]
< 100 nM | COCCN1C[C@@H](NC(=O)Nc2c(C)c(-c3cnc(N4CC(F)C4)nc3)nn2-c2ccccc2)[C@H](c2ccnc(F)c2)O1 (racemic) [Compound I-480]
< 100 nM | COCCN1C[C@@H](NC(=O)Nc2c(C)c(-c3cnc(N4CC(F)(F)C4)nc3)nn2-c2ccccc2)[C@H](c2ccnc(F)c2)O1 (racemic) [Compound I-481]
< 100 nM | COCCN1C[C@@H](NC(=O)Nc2c(C)c(-c3cnc(N4CCC5(COC5)C4)nc3)nn2-c2ccccc2)[C@H](c2ccnc(F)c2)O1 (racemic) [Compound I-482]
< 100 nM | COCCN1C[C@@H](NC(=O)Nc2c(C)c(-c3cnc(N4CC5(CCOC5)C4)nc3)nn2-c2ccccc2)[C@H](c2ccnc(F)c2)O1 (racemic) [Compound I-483]
< 100 nM | COCCN1C[C@@H](NC(=O)Nc2c(C)c(-c3cnc(N4CCC5(CC4)COC5)nc3)nn2-c2ccccc2)[C@H](c2ccnc(F)c2)O1 (racemic) [Compound I-484]
< 100 nM | COCCN1C[C@@H](NC(=O)Nc2c(C)c(-c3cnc(N4CC5(CCC5)C4)nc3)nn2-c2ccccc2)[C@H](c2ccnc(F)c2)O1 (racemic) [Compound I-485]
< 100 nM | COCCN1C[C@@H](NC(=O)Nc2c(C)c(-c3cnc(N4C[C@H]5CC[C@@H](C4)O5)nc3)nn2-c2ccccc2)[C@H](c2ccnc(F)c2)O1 (racemic) [Compound I-486]

The remaining lines, values behind:

Compound | IC50
COCCN1C[C@@H](NC(=O)Nc2c(C)c(-c3cnc(N4C[C@H]5COC[C@@H](C4)N5C)nc3)nn2-c2ccccc2)[C@H](c2ccnc(F)c2)O1 (racemic) [Compound I-422] | < 100 nM
COCCN1C[C@@H](NC(=O)Nc2c(C)c(-c3cnc4c(c3)c(CN3CCC(F)(F)C3)nn4C)nn2-c2ccccc2)[C@H](c2ccnc(F)c2)O1 (racemic) [Compound I-423] | < 100 nM
COCCN1C[C@@H](NC(=O)Nc2c(C)c(-c3cnc4c(c3)c(CO[Si](C)(C)C(C)(C)C)nn4C)nn2-c2ccccc2)[C@H](c2ccnc(F)c2)O1 (racemic) [Compound I-424] | < 100 nM
COCCN1C[C@@H](NC(=O)Nc2c(C)c(-c3cnc(OC4CC4)nc3)nn2-c2ccccc2)[C@H](c2ccnc(F)c2)O1 (racemic) [Compound I-425] | < 100 nM
COCCN1C[C@@H](NC(=O)Nc2c(C)c(-c3cnc4c(c3)ncn4C3CCN(C)CC3)nn2-c2ccccc2)[C@H](c2ccnc(F)c2)O1 (racemic) [Compound I-426] | < 100 nM
COCCN1C[C@@H](NC(=O)Nc2c(C)c(-c3cnc4c(c3)OCCO4)nn2-c2ccccc2)[C@H](c2ccnc(F)c2)O1 (racemic) [Compound I-427] | < 100 nM
COCCN1C[C@@H](NC(=O)Nc2c(C)c(-c3cnc4c(c3)CN(Cc3ccccc3)CC4)nn2-c2ccccc2)[C@H](c2ccnc(F)c2)O1 (racemic) [Compound I-428] | < 100 nM
COCCN1C[C@@H](NC(=O)Nc2c(C)c(-c3cnc(OC)c(OC)c3)nn2-c2ccccc2)[C@H](c2cnc(F)c(F)c2)O1 (racemic) [Compound I-429] | < 100 nM
COCCN1C[C@@H](NC(=O)Nc2c(C)c(-c3cnc4c(cnn4C)n3)nn2-c2ccccc2)[C@H](c2ccnc(F)c2)O1 (racemic) [Compound I-432] | < 100 nM
COCCN1C[C@@H](NC(=O)Nc2c(C)c(-c3cnc(Br)nc3)nn2-c2ccccc2)[C@H](c2ccnc(F)c2)O1 (racemic) [Compound I-433] | < 100 nM
COCCN1C[C@@H](NC(=O)Nc2c(C)c(-c3cnc4c(c3)c(CO)nn4C)nn2-c2ccccc2)[C@H](c2ccnc(F)c2)O1 (racemic) [Compound I-434] | < 100 nM
COCCN1C[C@@H](NC(=O)Nc2c(C)c(-c3cnc(C(=O)OC)c(CF)c3)nn2-c2ccccc2)[C@H](c2ccnc(F)c2)O1 (racemic) [Compound I-435] | < 100 nM
CNC(=O)c1ncc(-c2nn(-c3ccccc3)c(NC(=O)N[C@@H]3CN(CCOC)O[C@H]3c3ccnc(F)c3)c2C)cc1CF (racemic) [Compound I-437] | < 100 nM
COCCN1C[C@@H](NC(=O)Nc2c(C)c(-c3cnc(C4[C@@H]5CC[C@H]4COC5)nc3)nn2-c2ccccc2)[C@H](c2ccnc(F)c2)O1 (mixture of isomers) [Compound I-438] | < 100 nM
COCCN1C[C@@H](NC(=O)Nc2c(C)c(-c3cnc4c(c3)CN(C(C)=O)CC4)nn2-c2ccccc2)[C@H](c2ccnc(F)c2)O1 (racemic) [Compound I-439] | < 100 nM
COCCN1C[C@@H](NC(=O)Nc2c(C)c(-c3cnc4c(c3)CN(C)CC4)nn2-c2ccccc2)[C@H](c2ccnc(F)c2)O1 (racemic) [Compound I-440] | < 100 nM
COCCN1C[C@@H](NC(=O)Nc2c(C)c(Oc3ccnc(C(F)(F)F)c3)nn2-c2ccccc2)[C@H](c2ccnc(F)c2)O1 (racemic) [Compound I-441] | 100 to 1000 nM
COCCN1C[C@@H](NC(=O)Nc2c(C)c(Oc3ccnc(F)c3)nn2-c2ccccc2)[C@H](c2ccnc(F)c2)O1 (racemic) [Compound I-442] | 100 to 1000 nM
COCCN1C[C@@H](NC(=O)Nc2c(C)c(-c3cnc(OC4CCOCC4)nc3)nn2-c2ccccc2)[C@H](c2ccnc(F)c2)O1 (racemic) [Compound I-443] | < 100 nM
COCCN1C[C@@H](NC(=O)Nc2c(C)c(-c3cnc(COC)nc3)nn2-c2ccccc2)[C@H](c2ccnc(F)c2)O1 (racemic) [Compound I-444] | < 100 nM
COCCN1C[C@@H](NC(=O)Nc2c(C)c(-c3cnc(C4=CCN(C)CC4)nc3)nn2-c2ccccc2)[C@H](c2ccnc(F)c2)O1 (racemic) [Compound I-445] | < 100 nM
COCCN1C[C@@H](NC(=O)Nc2c(C)c(-c3cnc4c(cnn4CC(=O)OC)c3)nn2-c2ccccc2)[C@H](c2ccnc(F)c2)O1 (racemic) [Compound I-446] | < 100 nM
COCC[C@@H]1C[C@@H](NC(=O)Nc2c(C)c(-c3cnn(C)c3)nn2-c2ccccn2)[C@H](c2ccc(F)c(F)c2)O1 (racemic) [Compound I-448] | 100 to 1000 nM
CNC(=O)c1ccc(-c2nn(-c3ccccc3)c(NC(=O)N[C@@H]3CN(CCOC)O[C@H]3c3ccnc(F)c3)c2C)cn1 (racemic) [Compound I-452] | < 100 nM
CNC(=O)c1ccc(-c2nn(-c3ccccc3)c(NC(=O)N[C@@H]3CN(CCOC)O[C@H]3c3cnc(F)c(F)c3)c2C)cn1 (racemic) [Compound I-453] | < 100 nM
COCCN1C[C@@H](NC(=O)Nc2c(C)c(OCc3ccccn3)nn2-c2ccccc2)[C@H](c2ccnc(F)c2)O1 (racemic) [Compound I-454] | < 100 nM
COCCN1C[C@@H](NC(=O)Nc2c(C)c(OCc3cccnc3)nn2-c2ccccc2)[C@H](c2ccnc(F)c2)O1 (racemic) [Compound I-455] | < 100 nM

same assay, conditions: human TrkA 1 nmol/L, ATP 500 μmol/L, 120 min at 37° C.; read-out: IC50 values (TrkA phosphorylation inhibition)

IC50 | Compound
3.1 nM | COCCN1C[C@@H](NC(=O)Nc2c(C)c(-c3cnc(OCC4CC4)nc3)nn2-c2ccccc2)[C@H](c2ccnc(F)c2)O1 (racemic) [Compound I-431]
4 nM | COCCN1C[C@@H](NC(=O)Nc2c(C)c(-c3cnc(OCC(F)F)nc3)nn2-c2ccccc2)[C@H](c2ccnc(F)c2)O1 (racemic) [Compound I-436]
